Each structure is given as a SMILES string. Like-named read-outs stand apart in the source and are kept apart here.

Experiment [1] deals with Aβ42. Briefly: γ-secretase-modulating activity, Method 2: Aβ42 Alphalisa in supernatant of SKNBE2 cells carrying APP 695-wild type (Table 3b). Format: cell-based. Conditions: overnight. An outline of the steps: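 SKNBE2 cells expressing wild-type APP695 were incubated overnight at 37° C. with test compound. Secreted Aβ42 was then measured by AlphaLISA, using a C-terminal Aβ42 antibody paired with an N-terminal Aβ antibody. IC50 came from a 4-parameter fit of percent of compound-free control.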

Experiment [2] has as its system Aβ42. Briefly: In vivo efficacy, Method 1: brain soluble Aβ42 lowering 4 h after a single oral dose, ELISA (Table 4a). The arrangement: species or system mouse. The note with it: dose 30 mg/kg oral dosing. An excerpt: To determine whether acute administration of an Aβ42 lowering agent would reduce Aβ42 levels in vivo, non-transgenic rodents, e.g. mice or rats were used. Alternatively, two to three month old Tg2576 mice expressing APP695 containing the “Swedish” variant can be used or a transgenic mouse model developed by Dr. Fred Van Leuven (K.U. Leuven, Belgium) and co-workers, with neuron-specific expression of a clinical mutant of the human amyloid precursor protein [V717I] (Moechars et al., 1999 J. Biol. Chem. 274, 6483). Young transgenic mice have high levels of Aβ in the brain but no detectable Aβ deposition. At approximately 6-8 months of age, the transgenic mice start to display spontaneous, progressive accumulation of β-amyloid (Aβ) in the brain, eventually resulting in amyloid plaques within the subiculum, hippocampus and cortex. Animals treated with the Aβ42 lowering agent were examined and compared to those untreated or treated with vehicle and brain levels of soluble Aβ42 and total Aβ would be quantitated by standard techniques, for example, using ELISA. Treatment periods varied from hours (h) to days and were adjusted based on the results of the Aβ42 lowering once a time course of onset of effect could be established.
A typical protocol for measuring Aβ42 lowering in vivo is shown but it is only one of many variations that could be used to optimize the levels of detectable Aβ. For example, Aβ42 lowering compounds were formulated in 20% of Captisol® (a sulfobutyl ether of β-cyclodextrin) in water or 20% hydroxypropyl cyclodextrin. The Aβ42 lowering agents were administered as a single oral dose or by any acceptable route of administration to overnight fasted animals. After 4 h, the animals were sacrificed and Aβ42 levels were analysed.
Blood was collected by decapitation and exsanguinations in EDTA-treated collection tubes. Blood was centrifuged at 1900 g for 10 minutes (min) at 4° C. and the plasma recovered and flash frozen for later analysis. The brain was removed from the cranium and hindbrain. The cerebellum was removed and the left and right hemisphere were separated. The left hemisphere was stored at −18° C. for quantitative analysis of test compound levels. The right hemisphere was rinsed with phosphate-buffered saline (PBS) buffer and immediately frozen on dry ice and stored at −80° C. until homogenization for biochemical assays.
Mouse brains were resuspended in 10 volumes of 0.4% DEA (diethylamine)/50 mM NaCl pH 10 (for non-transgenic animals) or 0.1% 3-[(3-cholamidopropyl)-dimethyl-ammonio]-1-propanesulfonate (CHAPS) in tris buffered saline (TBS) (for transgenic animals) containing protease inhibitors (Roche-11873580001 or 04693159001) per gram of tissue, e.g. for 0.158 g brain, add 1.58 ml of 0.4% DEA. All samples were sonicated for 30 seconds on ice at 20% power output (pulse mode). Homogenates were centrifuged at 221.300×g for 50 min. The resulting high speed supernatants were then transferred to fresh tubes and were optionally further purified before the next step. A portion of the supernatant was neutralized with 10% 0.5 M Tris-HCl and this was used to quantify Aβtotal.
The obtained supernatants were purified with Water Oasis HLB reverse phase columns (Waters Corp., Milford, Mass.) to remove non-specific immunoreactive material from the brain lysates prior subsequent Aβ detection. Using a vacuum manifold, all solutions were passed through the columns at a rate of approximately 1 ml per min, so the vacuum pressure was adjusted accordingly throughout the procedure. Columns were preconditioned with 1 ml of 100% MeOH, before equilibration with 1 ml of H2O, Non-neutralized brain lysates were loaded onto the columns. The loaded samples were then washed twice with the first wash performed with 1 ml of 5% MeOH, and the second wash with 1 ml of 30% MeOH. Finally, the Aβ was eluted from the columns and into 100×30 mm glass tubes, with a solution of 90% MeOH with 2% NH4OH. […]

The next experiment relates to Aβtotal. Briefly: γ-secretase-modulating activity, Method 2: Aβtotal Alphalisa in supernatant of SKNBE2 cells carrying APP 695-wild type (Table 3b). It counts as cell-based. The note with it: overnight, read-out: IC50 Aβtot. In outline: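 SKNBE2 cells expressing wild-type APP 695 were incubated overnight at 37 °C, 5% CO2 with test compound at a range of concentrations. Aβtotal in supernatant was measured by AlphaLISA sandwich (N-terminal JRF/AβN/25 acceptor, biotinylated mid-region 4G8 donor); IC50 from 4-parameter fit of percent control versus log concentration.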

Take `COc1cc(-c2nc(C)c(-c3ccccc3)[nH]2)ccc1-n1cnc(C)c1` [Compound 11]: the IC50 in the experiment with Aβ42 [1] (Homo sapiens) is 182 nM; in the experiment with Aβtotal (Homo sapiens) it was > 10000 nM. The “Aβ42 (% Ctrl) _Mean” value with Aβ42 [2] is on record as 4 % Ctrl.

As for `COc1cc(-c2nc(Nc3cccc(C(F)(F)F)c3)n(C)n2)ccc1-n1cnc(C)c1` [Compound 146], the concentration for half-maximal inhibition (IC50) with Aβ42 [1] amounted to 15 nM; with Aβtotal it was 4070 nM. Also, the “Aβ42 (% Ctrl) _Mean” value with Aβ42 [2] is given as 27 % Ctrl.

For `COc1cc(-c2nc(Nc3ccc(F)cc3C(F)(F)F)n(C)n2)ccc1-n1cnc(C)c1` [Compound 15], the IC50 with Aβ42 [1] is 50 nM; in the experiment with Aβtotal it was > 10000 nM. The “Aβ42 (% Ctrl) _Mean” value in the experiment on Aβ42 [2] worked out at 42 % Ctrl.

As for `COc1cc(-c2nc(-c3ccccc3)n(C)n2)ccc1-n1cnc(C)c1` [Compound 9], the figures for the IC50 in the experiment with Aβ42 [1] (Homo sapiens) and with Aβtotal (Homo sapiens) were 603 nM and > 10000 nM, respectively. Besides, the “Aβ42 (% Ctrl) _Mean” value in the experiment with Aβ42 [2] is reported as 24 % Ctrl.

(Values after patent US8946266B2, “Substituted triazole and imidazole derivatives as gamma secretase modulators” (Janssen Pharmaceuticals, Inc., priority 2009, dated 2015).)
